Measured values taken from ChEMBL document CHEMBL3797079, “Synergistic reduction of HIV-1 infectivity by 5-azacytidine and inhibitors of ribonucleotide reductase” (Bioorg Med Chem, 2016).
Active and inactive are the calls of the source. No cut-off for these calls is given here.

Experiments:
[1] = system: Human immunodeficiency virus 1; assay: Antiviral activity against VSV-G pseudotyped HIV-1 NL4-3 infected in human U373-MAGI cells assessed as reduction in U5-gag level at 0.25 to 8 uM after 2 to 72 hrs by qPCR method; format: functional, organism-based
[2] = system: Human immunodeficiency virus 1; assay: Antiviral activity against VSV-G pseudotyped HIV-1 NL4-3 infected in human U373-MAGI cells assessed as Env mutation at 3.8 uM incubated for 2 hrs prior to infection measured at 72 hrs post infection by illumina sequencing method (reference value: 21.4%); format: functional
[3] = system: Human immunodeficiency virus 1; assay: Antiviral activity against VSV-G pseudotyped HIV-1 NL4-3 infected in human U373-MAGI cells assessed as Pol mutation at 3.8 uM incubated for 2 hrs prior to infection measured at 72 hrs post infection by illumina sequencing method (reference value: 18.5%); format: functional
[4] = system: Human immunodeficiency virus 1; assay: Antiviral activity against VSV-G pseudotyped HIV-1 NL4-3 infected in human U373-MAGI cells assessed as Gag mutation at 3.8 uM incubated for 2 hrs prior to infection measured at 72 hrs post infection by illumina sequencing method (reference value: 18.4%); format: functional
[5] = system: Human immunodeficiency virus 1; assay: Antiviral activity against VSV-G pseudotyped HIV-1 NL4-3 infected in human U373-MAGI cells assessed as Vif mutation at 3.8 uM incubated for 2 hrs prior to infection measured at 72 hrs post infection by illumina sequencing method (reference value: 19.2%); format: functional
[6] = system: Human immunodeficiency virus 1; assay: Antiviral activity against VSV-G pseudotyped HIV-1 NL4-3 infected in human U373-MAGI cells assessed as reduction in gag level at 0.25 to 8 uM after 2 to 72 hrs by qPCR method; format: functional, organism-based
[7] = system: Human immunodeficiency virus 1; assay: Antiviral activity against VSV-G pseudotyped HIV-1 NL4-3 infected in human U373-MAGI cells assessed as Nef mutation at 3.8 uM incubated for 2 hrs prior to infection measured at 72 hrs post infection by illumina sequencing method (reference value: 22.6%); format: functional
[8] = Reduction in dCTP level in human U373-MAGI cells at EC75 after 4 hrs by LC-MS/MS analysis relative to control; format: functional; design: scale not given: the % may be the effect or the level left
[9] = system: Human immunodeficiency virus 1; assay: Antiviral activity against VSV-G pseudotyped HIV-1 NL4-3 infected in human U373-MAGI cells assessed as Vif mutation at 260 uM incubated for 2 hrs prior to infection measured at 72 hrs post infection by illumina sequencing method (reference value: 19.2%); format: functional
[10] = system: Human immunodeficiency virus 1; assay: Antiviral activity against VSV-G pseudotyped HIV-1 NL4-3 infected in human U373-MAGI cells assessed as Pol mutation at 260 uM incubated for 2 hrs prior to infection measured at 72 hrs post infection by illumina sequencing method (reference value: 18.5%); format: functional
[11] = system: Human immunodeficiency virus 1; assay: Antiviral activity against VSV-G pseudotyped HIV-1 NL4-3 infected in human U373-MAGI cells assessed as increase in frequency of C to G transversion at 260 uM incubated for 2 hrs prior to infection measured at 72 hrs post infection by illumina sequencing method relative to control; format: functional
[12] = system: Human immunodeficiency virus 1; assay: Antiviral activity against VSV-G pseudotyped HIV-1 NL4-3 infected in human U373-MAGI cells assessed as increase in frequency of G to C transversion at 260 uM incubated for 2 hrs prior to infection measured at 72 hrs post infection by illumina sequencing method relative to control; format: functional
[13] = system: Human immunodeficiency virus 1; assay: Antiviral activity against VSV-G pseudotyped HIV-1 NL4-3 infected in human U373-MAGI cells assessed as reduction in U5-gag level at 25 to 400 uM after 2 to 72 hrs by qPCR method; format: functional, organism-based
[14] = system: Human immunodeficiency virus 1; assay: Antiviral activity against VSV-G pseudotyped HIV-1 NL4-3 infected in human U373-MAGI cells assessed as G to C transversion at 260 uM incubated for 2 hrs prior to infection measured at 72 hrs post infection by illumina sequencing method relative to control; format: functional
[15] = system: Human immunodeficiency virus 1; assay: Antiviral activity against VSV-G pseudotyped HIV-1 NL4-3 infected in human U373-MAGI cells assessed as Gag mutation at 260 uM incubated for 2 hrs prior to infection measured at 72 hrs post infection by illumina sequencing method (reference value: 18.4%); format: functional
[16] = system: Human immunodeficiency virus 1; assay: Antiviral activity against VSV-G pseudotyped HIV-1 NL4-3 infected in human U373-MAGI cells assessed as increase in mutation frequency at 260 uM incubated for 2 hrs prior to infection measured at 72 hrs post infection by illumina sequencing method; format: functional
[17] = system: Human immunodeficiency virus 1; assay: Antiviral activity against VSV-G pseudotyped HIV-1 NL4-3 infected in human U373-MAGI cells assessed as reduction in gag level at 25 to 400 uM after 2 to 72 hrs by qPCR method; format: functional, organism-based
[18] = system: Human immunodeficiency virus 1; assay: Antiviral activity against VSV-G pseudotyped HIV-1 NL4-3 infected in human U373-MAGI cells assessed as C to G transversion at 260 uM incubated for 2 hrs prior to infection measured at 72 hrs post infection by illumina sequencing method relative to control; format: functional
[19] = system: Human immunodeficiency virus 1; assay: Antiviral activity against VSV-G pseudotyped HIV-1 NL4-3 infected in human U373-MAGI cells assessed as Env mutation at 260 uM incubated for 2 hrs prior to infection measured at 72 hrs post infection by illumina sequencing method (reference value: 21.4%); format: functional
[20] = system: Human immunodeficiency virus 1; assay: Antiviral activity against VSV-G pseudotyped HIV-1 NL4-3 infected in human U373-MAGI cells assessed as Nef mutation at 260 uM incubated for 2 hrs prior to infection measured at 72 hrs post infection by illumina sequencing method (reference value: 22.6%); format: functional
U373-MAGI [21] = assay: Reduction in dCTP level in human U373-MAGI cells at 0.5 mM after 6 hrs by LC-MS/MS analysis; format: functional, cell-based
U373-MAGI [22] = assay: Reduction in dGTP level in human U373-MAGI cells at 2 mM after 6 hrs by LC-MS/MS analysis; format: functional, cell-based
U373-MAGI [23] = assay: Effect on dRGU-TP level in human U373-MAGI cells at 0.5 mM preincubated for 2 hrs followed by 5-aza-dC addition measured after 4 hrs by LC-MS/MS analysis; format: functional, cell-based
U373-MAGI [24] = assay: Increase in 5-aza-dCTP/dCTP ratio in human U373-MAGI cells at 2 mM preincubated for 2 hrs followed by 5-aza-dC addition measured after 4 hrs by LC-MS/MS analysis relative to 5-aza-dC; format: functional, cell-based
U373-MAGI [25] = assay: Reduction in 5-aza-dCTP level in human U373-MAGI cells at 0.5 mM preincubated for 2 hrs followed by 5-aza-C addition measured after 4 hrs by LC-MS/MS analysis; format: functional, cell-based
U373-MAGI [26] = assay: Reduction in dCTP level in human U373-MAGI cells at 2 mM preincubated for 2 hrs followed by 5-aza-dC addition measured after 4 hrs by LC-MS/MS analysis relative to 5-aza-dC; format: functional, cell-based
U373-MAGI [27] = assay: Effect on 5-aza-dCTP level in human U373-MAGI cells at 2 mM preincubated for 2 hrs followed by 5-aza-dC addition measured after 4 hrs by LC-MS/MS analysis; format: functional, cell-based
U373-MAGI [28] = assay: Reduction in dCTP level in human U373-MAGI cells at 0.5 mM preincubated for 2 hrs followed by 5-aza-C addition measured after 4 hrs by LC-MS/MS analysis; format: functional, cell-based
U373-MAGI [29] = assay: Increase in 5-aza-dCTP/dCTP ratio in human U373-MAGI cells at 0.5 mM preincubated for 2 hrs followed by 5-aza-dC addition measured after 4 hrs by LC-MS/MS analysis relative to 5-aza-dC; format: functional, cell-based
U373-MAGI [30] = assay: Reduction in dRGU-TP level in human U373-MAGI cells at 0.5 mM preincubated for 2 hrs followed by 5-aza-C addition measured after 4 hrs by LC-MS/MS analysis; format: functional, cell-based
U373-MAGI [31] = assay: Effect on 5-aza-dCTP level in human U373-MAGI cells at 0.5 mM preincubated for 2 hrs followed by 5-aza-dC addition measured after 4 hrs by LC-MS/MS analysis; format: functional, cell-based
U373-MAGI [32] = assay: Reduction in dCTP level in human U373-MAGI cells at 2 mM preincubated for 2 hrs followed by 5-aza-C addition measured after 4 hrs by LC-MS/MS analysis relative to 5-aza-C; format: functional, cell-based
U373-MAGI [33] = assay: Reduction in dATP level in human U373-MAGI cells at 0.5 mM after 6 hrs by LC-MS/MS analysis; format: functional, cell-based
U373-MAGI [34] = assay: Reduction in dGTP level in human U373-MAGI cells at 0.5 mM after 6 hrs by LC-MS/MS analysis; format: functional, cell-based
U373-MAGI [35] = assay: Reduction in dRGU-TP level in human U373-MAGI cells at 2 mM preincubated for 2 hrs followed by 5-aza-C addition measured after 4 hrs by LC-MS/MS analysis; format: functional, cell-based
U373-MAGI [36] = assay: Reduction in dTTP level in human U373-MAGI cells at 2 mM after 6 hrs by LC-MS/MS analysis; format: functional, cell-based
U373-MAGI [37] = assay: Increase in 5-aza-dCTP/dCTP ratio in human U373-MAGI cells at 2 mM preincubated for 2 hrs followed by 5-aza-C addition measured after 4 hrs by LC-MS/MS analysis relative to 5-aza-C; format: functional, cell-based
[38] = system: Human immunodeficiency virus 1; assay: Potentiation of 5-Aza-C-induced antiviral activity against VSV-G pseudotyped HIV-1 NL4-3 infected in human U373-MAGI cells assessed as decrease in 5-Aza-C EC50 at 500 uM preincubated for 2 hrs followed by 5-Aza-C addition for 2 hrs and subsequent viral infection measured at 72 hrs post infection by flow cytometric analysis relative to control; format: functional
U373-MAGI [39] = assay: Reduction in 5-aza-dCTP level in human U373-MAGI cells at 2 mM preincubated for 2 hrs followed by 5-aza-C addition measured after 4 hrs by LC-MS/MS analysis; format: functional, cell-based
U373-MAGI [40] = assay: Reduction in dCTP level in human U373-MAGI cells at 2 mM after 6 hrs by LC-MS/MS analysis; format: functional, cell-based
U373-MAGI [41] = assay: Reduction in dATP level in human U373-MAGI cells at 2 mM after 6 hrs by LC-MS/MS analysis; format: functional, cell-based
U373-MAGI [42] = assay: Increase in 5-aza-dCTP/dCTP ratio in human U373-MAGI cells at 0.5 mM preincubated for 2 hrs followed by 5-aza-C addition measured after 4 hrs by LC-MS/MS analysis relative to 5-aza-C; format: functional, cell-based
[43] = system: Human immunodeficiency virus 1; assay: Antiviral activity against VSV-G pseudotyped HIV-1 NL4-3 infected in human U373-MAGI cells assessed as reduction in viral infectivity at 500 uM incubated for 4 hrs prior to viral infection measured at 72 hrs post infection by flow cytometric analysis; format: functional, organism-based
U373-MAGI [44] = assay: Reduction in dTTP level in human U373-MAGI cells at 0.5 mM after 6 hrs by LC-MS/MS analysis; format: functional, cell-based
[45] = Cytotoxicity against human U373-MAGI cells at 500 uM measured at 72 hrs by Celltiter-Glo luminescent cell viability assay; format: cell-based
U373-MAGI [46] = assay: Effect on dRGU-TP level in human U373-MAGI cells at 2 mM preincubated for 2 hrs followed by 5-aza-dC addition measured after 4 hrs by LC-MS/MS analysis; format: functional, cell-based
U373-MAGI [47] = assay: Reduction in dCTP level in human U373-MAGI cells at 0.5 mM preincubated for 2 hrs followed by 5-aza-dC addition measured after 4 hrs by LC-MS/MS analysis relative to 5-aza-dC; format: functional, cell-based

Nc1ncn([C@H]2C[C@H](O)[C@@H](CO)O2)c(=O)n1 [DECITABINE]
Activity [1]: Active | Activity [2]: 20.5% | Activity [3]: 26% | Activity [4]: 16% | Activity [5]: 15.9% | Activity [6]: Active | Activity [7]: 21.5% | Activity [8]: 50%

Nc1ncn([C@@H]2O[C@H](CO)[C@@H](O)[C@H]2O)c(=O)n1 [AZACITIDINE]
Activity [9]: 12.8% | Activity [10]: 25.8% | fold change (FC) [11]: 43 | fold change (FC) [12]: 67 | Activity [13]: Active | Activity [14]: 60% | Activity [15]: 17% | fold change (FC) [16]: 6.8 | Activity [17]: Active | Activity [18]: 10% | Activity [8]: 50% | Activity [19]: 19.1% | Activity [20]: 25.4%

NC(=O)NO [HYDROXYUREA]
Activity (U373-MAGI [21]): inactive | Activity (U373-MAGI [22]): inactive | Activity (U373-MAGI [23]): inactive | Activity (U373-MAGI [24]): Active | Activity (U373-MAGI [25]): inactive | Activity (U373-MAGI [26]): Active | Activity (U373-MAGI [27]): inactive | Activity (U373-MAGI [28]): Active | Activity (U373-MAGI [29]): Active | Activity (U373-MAGI [30]): inactive | Activity (U373-MAGI [31]): inactive | Activity (U373-MAGI [32]): Active | Activity (U373-MAGI [33]): inactive | Activity (U373-MAGI [34]): inactive | Activity (U373-MAGI [35]): inactive | Activity (U373-MAGI [36]): inactive | Activity (U373-MAGI [37]): inactive | fold change (FC) [38]: 2.5 | Activity (U373-MAGI [39]): inactive | Activity (U373-MAGI [40]): inactive | Activity (U373-MAGI [41]): Active | Activity (U373-MAGI [42]): Active | Activity [43]: Active | Activity (U373-MAGI [44]): inactive | Activity [45]: Non-toxic | Activity (U373-MAGI [46]): inactive | Activity (U373-MAGI [47]): Active
